Reference: the supplement of paper PMC10307832

Experiments:
Test in all cases: relative viability (nuclei count vs DMSO), 5 days (fraction); higher = more cells survive
[1] = compound: CC[C@@H]1C(=O)N(C)c2cnc(Nc3ccc(C(=O)NC4CCN(C)CC4)cc3OC)nc2N1C1CCCC1 [BI-2536] + Cc1cc(Nc2cc(N3CCN(C)CC3)nc(Sc3ccc(NC(=O)C4CC4)cc3)n2)n[nH]1 [Tozasertib] (partner 0.1 µM)
How it was run: (§1)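 Lung cancer cell lines were pin-tool dosed in 1536-well plates on the day after seeding, with either a lone drug or a fixed anchor-drug dose plus five library-drug doses (not always all listed) in √10 steps. Nuclei were counted on 4× images after 5 days. Relative viability is the ratio of treated-well to vehicle-well nuclei counts, with each value a median of duplicate plates.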

[2] = compound: CC1CC(=O)N(C2=CN=C(N=C2N1C3CCCC3)NC4=C(C=C(C=C4)C(=O)NC5CCN(CC5)C)OC)C [NPK76-II-72-1] + O=C(c1cc(Cc2n[nH]c(=O)c3ccccc23)ccc1F)N1CCN(C(=O)C2CC2)CC1 [Olaparib] (partner 8 µM)
How it was run: as §1

[3] = compound: CC[C@@H]1C(=O)N(C)c2cnc(Nc3ccc(C(=O)NC4CCN(C)CC4)cc3OC)nc2N1C1CCCC1 [BI-2536] + Nc1ncn([C@H]2C[C@H](O)[C@@H](CO)O2)c(=O)n1 [Decitabine] (partner 2 µM)
How it was run: as §1

[4] = compound: CC1CC(=O)N(C2=CN=C(N=C2N1C3CCCC3)NC4=C(C=C(C=C4)C(=O)NC5CCN(CC5)C)OC)C [NPK76-II-72-1] + CS(=O)(=O)CCNCc1ccc(-c2ccc3ncnc(Nc4ccc(OCc5cccc(F)c5)c(Cl)c4)c3c2)o1 [Lapatinib] (partner 2 µM)
How it was run: as §1

Cell Line	relative viability ([1]; first compound 0.01 µM)	relative viability ([1]; first compound 0.03162 µM)	relative viability ([1]; first compound 0.1 µM)	relative viability ([1]; first compound 0.3162 µM)	relative viability ([1]; first compound 1 µM)	relative viability ([2]; first compound 0.01 µM)	relative viability ([2]; first compound 0.03162 µM)	relative viability ([2]; first compound 0.1 µM)	relative viability ([2]; first compound 0.3162 µM)	relative viability ([2]; first compound 1 µM)	relative viability ([3]; first compound 0.01 µM)	relative viability ([3]; first compound 0.03162 µM)	relative viability ([3]; first compound 0.1 µM)	relative viability ([3]; first compound 0.3162 µM)	relative viability ([3]; first compound 1 µM)	relative viability ([4]; first compound 0.01 µM)	relative viability ([4]; first compound 0.03162 µM)	relative viability ([4]; first compound 0.1 µM)	relative viability ([4]; first compound 1 µM)	relative viability ([4]; first compound 0.3162 µM)
NCI-H2170	0.713	0.89	0.593	0.177	0.249	0.57	0.572	0.666	0.381	0.656	0.466	0.471	0.431	0.167	0.181	0.267	0.286	0.257	0.268	–
NCI-H2347	–	0.503	0.465	0.295	0.352	0.525	0.632	0.612	0.508	0.658	0.595	0.736	0.589	0.506	0.414	0.95	1.06	0.857	1.08	0.717
NCI-H2405	0.73	0.566	0.381	0.296	0.33	0.861	0.888	0.908	0.858	0.88	0.721	0.662	0.387	0.307	0.392	1.13	1.11	1.09	1.09	1.04
NCI-H3122	0.363	0.207	0.266	0.297	0.246	0.6	0.6	0.722	0.653	0.589	0.386	0.508	0.392	0.151	0.159	1.02	1.03	0.966	1.04	1.1
PC-3 [JPC-3]	0.889	0.693	0.707	0.289	0.313	1.12	–	1.09	1.09	1.2	0.775	0.752	0.757	0.362	0.408	0.479	0.453	0.448	0.439	0.463
PC-14	0.577	0.568	0.548	0.045	0.0586	0.295	0.377	0.384	0.267	0.32	0.227	0.172	0.09	0.0445	0.0408	0.321	0.269	0.28	0.338	0.301
RERF-LC-KJ	0.496	0.405	0.275	0.224	0.226	0.903	0.914	0.908	0.901	0.905	0.692	0.437	0.157	0.194	0.215	0.818	0.869	0.841	0.979	0.818
SK-LU-1	0.323	0.317	0.323	0.218	0.176	0.432	0.49	0.475	0.511	0.587	0.61	0.726	0.337	0.316	0.249	0.897	0.867	0.96	1.08	0.776
SK-MES-1	0.956	0.801	0.191	0.151	0.172	0.646	0.787	0.794	0.746	0.728	0.335	0.351	0.186	0.164	0.184	0.447	0.449	0.426	0.465	0.419
SW 1573	0.192	0.166	0.159	0.127	0.121	0.437	0.625	0.495	0.488	0.473	0.473	0.257	0.095	0.0944	0.0866	1.03	1.09	1.04	1.16	1
